From ChEMBL document CHEMBL2321831, “Design, synthesis, and biological evaluations of novel 7-[7-amino-7-methyl-5-azaspiro[2.4]heptan-5-yl]-8-methoxyquinolines with potent antibacterial activity against respiratory pathogens” (J Med Chem, 2013)
In brackets after ≈: the same amount, converted by molar mass.

How the values were obtained:
[1] = AUC (0 to 8 hrs) in Crj:CD rat lung at 5 mg/kg, po; type: ADME, organism-based; set-up: time < 8 hr, dose 5 mg/kg, route oral
[2] = Drug recovery in cynomolgus monkey urine at 5 mg/kg, po after 24 hrs; type: ADME, organism-based, Macaca fascicularis; set-up: dose 5 mg/kg, route oral; conditions: read-out: Drug recovery
[3] = Drug uptake in cynomolgus monkey serum at 5 mg/kg, iv after 5 mins; type: ADME, organism-based, Macaca fascicularis; set-up: dose 5 mg/kg, route intravenous; conditions: read-out: Drug uptake
[4] = Cmax in cynomolgus monkey serum at 5 mg/kg, po; type: ADME, organism-based, Macaca fascicularis; set-up: dose 5 mg/kg, route oral
[5] = Drug recovery in cynomolgus monkey urine at 5 mg/kg, iv after 24 hrs; type: ADME, organism-based, Macaca fascicularis; set-up: dose 5 mg/kg, route intravenous; conditions: read-out: Drug recovery
[6] = Bioavailability in cynomolgus monkey at 5 mg/kg, po; type: ADME, organism-based, Macaca fascicularis; conditions: in vivo
[7] = AUC (0 to 8 hrs) in Crj:CD rat kidney at 5 mg/kg, po; type: ADME, organism-based; set-up: time < 8 hr, dose 5 mg/kg, route oral
[8] = Cmax in Crj:CD rat serum at 5 mg/kg, po; type: ADME, organism-based; set-up: dose 5 mg/kg, route oral
[9] = AUC (0 to 8 hrs) in Crj:CD rat liver at 5 mg/kg, po; type: ADME, organism-based; set-up: time < 8 hr, dose 5 mg/kg, route oral
[10] = AUC (0 to 8 hrs) in cynomolgus monkey serum at 5 mg/kg, iv; type: ADME, organism-based, Macaca fascicularis, Plasma; set-up: time < 8 hr, dose 5 mg/kg, route intravenous
[11] = AUC (0 to 24 hrs) in cynomolgus monkey serum at 5 mg/kg, po; type: ADME, organism-based, Macaca fascicularis, Plasma; set-up: time < 24 hr, dose 5 mg/kg, route oral
[12] = Drug recovery in Crj:CD rat urine at 5 mg/kg, po after 24 hrs; type: ADME, organism-based; set-up: dose 5 mg/kg, route oral; conditions: read-out: Drug recovery
[13] = Ratio of AUC (0 to 8 hrs) in Crj:CD rat kidney to AUC (0 to 8 hrs) in Crj:CD rat serum at 5 mg/kg, po; type: ADME, organism-based; set-up: dose 5 mg/kg, route oral; conditions: read-out: Ratio AUC
[14] = biological target: T1, hERG (KCNH2) (Homo sapiens, UniProt Q12809); experiment: Inhibition of human ERG expressed in CHOK1 cells at 100 uM; type: cell-based; conditions: CHO-K1 cells expressing hERG
T1 sequence (Q12809 whole entry): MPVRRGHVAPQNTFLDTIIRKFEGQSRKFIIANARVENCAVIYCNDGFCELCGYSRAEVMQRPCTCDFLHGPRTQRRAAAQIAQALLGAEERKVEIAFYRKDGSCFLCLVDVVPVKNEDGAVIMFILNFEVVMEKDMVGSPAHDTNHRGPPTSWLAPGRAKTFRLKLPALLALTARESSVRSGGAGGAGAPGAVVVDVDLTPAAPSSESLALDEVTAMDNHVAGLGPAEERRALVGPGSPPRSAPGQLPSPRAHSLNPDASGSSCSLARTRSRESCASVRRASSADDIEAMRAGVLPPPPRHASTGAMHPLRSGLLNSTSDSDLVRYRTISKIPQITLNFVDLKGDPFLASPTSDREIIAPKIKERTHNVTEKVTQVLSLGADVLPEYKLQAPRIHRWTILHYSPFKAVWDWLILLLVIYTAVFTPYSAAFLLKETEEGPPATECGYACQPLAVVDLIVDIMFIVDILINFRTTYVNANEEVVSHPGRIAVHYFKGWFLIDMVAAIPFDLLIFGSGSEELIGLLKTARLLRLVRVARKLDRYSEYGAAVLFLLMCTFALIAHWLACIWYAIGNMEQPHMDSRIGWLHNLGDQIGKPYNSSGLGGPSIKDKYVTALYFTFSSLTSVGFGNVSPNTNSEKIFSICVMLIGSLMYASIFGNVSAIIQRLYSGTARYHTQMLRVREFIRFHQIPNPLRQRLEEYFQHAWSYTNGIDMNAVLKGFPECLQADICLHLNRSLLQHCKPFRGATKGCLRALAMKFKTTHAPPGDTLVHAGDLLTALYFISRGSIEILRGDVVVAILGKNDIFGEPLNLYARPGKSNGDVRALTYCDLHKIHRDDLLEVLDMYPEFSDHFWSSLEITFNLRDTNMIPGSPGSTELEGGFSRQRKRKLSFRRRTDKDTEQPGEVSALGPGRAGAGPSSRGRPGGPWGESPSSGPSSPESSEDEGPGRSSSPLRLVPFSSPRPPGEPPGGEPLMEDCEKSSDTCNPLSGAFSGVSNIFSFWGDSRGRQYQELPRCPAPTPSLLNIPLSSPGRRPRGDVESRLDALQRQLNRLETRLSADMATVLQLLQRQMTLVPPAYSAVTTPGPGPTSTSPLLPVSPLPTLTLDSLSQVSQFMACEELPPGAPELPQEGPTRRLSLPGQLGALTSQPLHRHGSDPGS

[15] = system: Streptococcus pyogenes; experiment: Antibacterial activity against Streptococcus pyogenes G-36 after 18 hrs by microbroth dilution method; type: functional; conditions: G-36, 18 h
[16] = system: Escherichia coli; experiment: Antibacterial activity against Escherichia coli NIHJ after 18 hrs by microbroth dilution method; type: functional
[17] = Ratio of AUC (0 to 8 hrs) in Crj:CD rat lung to AUC (0 to 8 hrs) in Crj:CD rat serum at 5 mg/kg, po; type: ADME, organism-based; set-up: dose 5 mg/kg, route oral; conditions: read-out: Ratio AUC
[18] = system: Streptococcus pneumoniae; experiment: Antibacterial activity against penicillin-susceptible Streptococcus pneumoniae J24 after 18 hrs by microbroth dilution method; type: functional; conditions: J24, 18 h
[19] = Chloroform-phosphate buffer apparent partition coefficient of the compound, P at pH 7.4
[20] = Primary phase half life in cynomolgus monkey serum at 5 mg/kg, iv; type: ADME, organism-based, Macaca fascicularis; set-up: dose 5 mg/kg, route intravenous; conditions: read-out: alphat1/2 (converted)
[21] = Aqueous solubility of the compound; type: physicochemical
[22] = system: Pseudomonas aeruginosa; experiment: Antibacterial activity against Pseudomonas aeruginosa PAO1 after 18 hrs by microbroth dilution method; type: functional; conditions: PAO1, 18 h
[23] = system: Haemophilus influenzae; experiment: Antibacterial activity against Haemophilus influenzae ATCC 49247 after 18 hrs by microbroth dilution method; type: functional; conditions: ATCC 49247, 18 h
[24] = system: Bacillus subtilis; experiment: Antibacterial activity against Bacillus subtilis IID 685 after 18 hrs by microbroth dilution method; type: functional; conditions: IID 685, 18 h
[25] = AUC (0 to 8 hrs) in Crj:CD rat serum at 5 mg/kg, po; type: ADME, organism-based; set-up: time < 8 hr, dose 5 mg/kg, route oral
[26] = biological target: T1, hERG (KCNH2); experiment: Inhibition of human ERG expressed in CHOK1 cells at 30 uM; type: cell-based; conditions: CHO-K1 cells expressing hERG
[27] = system: Klebsiella pneumoniae; experiment: Antibacterial activity against Klebsiella pneumoniae TYPE1 after 18 hrs by microbroth dilution method; type: functional; conditions: TYPE1, 18 h
[28] = system: Moraxella catarrhalis; experiment: Antibacterial activity against Moraxella catarrhalis ATCC 25238 after 18 hrs by microbroth dilution method; type: functional; conditions: ATCC 25238, 18 h
[29] = system: Streptococcus pneumoniae; experiment: Antibacterial activity against quinolone, penicillin-resistant Streptococcus pneumoniae 104835 after 18 hrs by microbroth dilution method; type: functional; conditions: Streptococcus pneumoniae, 104835, 18 h
[30] = Half life in cynomolgus monkey serum at 5 mg/kg, po; type: ADME, organism-based, Macaca fascicularis; set-up: dose 5 mg/kg, route oral
[31] = system: Staphylococcus aureus; experiment: Antibacterial activity against levofloxacin-resistant and methicillin-resistant Staphylococcus aureus 870307 after 18 hrs by microbroth dilution method; type: functional; conditions: Staphylococcus aureus, 870307, 18 h
[32] = Ratio of AUC (0 to 8 hrs) in Crj:CD rat liver to AUC (0 to 8 hrs) in Crj:CD rat serum at 5 mg/kg, po; type: ADME, organism-based; set-up: dose 5 mg/kg, route oral; conditions: read-out: Ratio AUC
[33] = Plasma protein binding in human at 5 ug/mL by ultrafiltration method; type: ADME, cell-free; conditions: read-out: PPB (converted)
[34] = system: Staphylococcus aureus; experiment: Antibacterial activity against Staphylococcus aureus FDA 209-P after 18 hrs by microbroth dilution method; type: functional
[35] = system: Streptococcus pneumoniae; experiment: Antibacterial activity against levofloxacin-intermediate and levofloxacin-resistant Streptococcus pneumoniae after 18 hrs by microbroth dilution method; type: functional
[36] = system: Mycoplasmoides pneumoniae; experiment: Antibacterial activity against Mycoplasma pneumoniae 18-1 after 18 hrs by microbroth dilution method; type: functional; conditions: 18-1, 18 h
[37] = system: Chlamydia pneumoniae; experiment: Antibacterial activity against Chlamydophila pneumoniae CM-1 after 18 hrs by microbroth dilution method; type: functional; conditions: CM-1, 18 h
[38] = system: Mycoplasmoides pneumoniae; experiment: Antibacterial activity against Mycoplasma pneumoniae ATCC 29085 after 18 hrs by microbroth dilution method; type: functional; conditions: ATCC 29085, 18 h
[39] = system: Chlamydia pneumoniae; experiment: Antibacterial activity against Chlamydophila pneumoniae AR39 after 18 hrs by microbroth dilution method; type: functional; conditions: AR39, 18 h
[40] = system: Staphylococcus epidermidis; experiment: Antibacterial activity against Staphylococcus epidermidis 56500 after 18 hrs by microbroth dilution method; type: functional; conditions: Staphylococcus epidermidis, 56500, 18 h
[41] = system: Enterococcus faecalis; experiment: Antibacterial activity against Enterococcus faecalis ATCC 19433 after 18 hrs by microbroth dilution method; type: functional; conditions: ATCC 19433, 18 h

Row | SMILES | AUC(0-t) at 8 h [1] [ng·h/mL] | dose excreted at 24 h [2] [%] | concentration at 5 min [3] [ng/mL] | Cmax [4] [ng/mL] | dose excreted at 24 h [5] [%] | bioavailability [6] [%] | AUC(0-t) at 8 h [7] [ng·h/mL] | Cmax [8] [ng/mL] | AUC(0-t) at 8 h [9] [ng·h/mL] | AUC(0-t) at 8 h [10] [ng·h/mL] | AUC(0-t) at 24 h [11] [ng·h/mL] | dose excreted at 24 h [12] [%] | MIC [15] [µg/mL] | MIC [18] [µg/mL] | MIC [22] [µg/mL] | MIC [23] [µg/mL] | MIC [24] [µg/mL] | MIC50 [35] [µg/mL] | MIC80 [35] [µg/mL] | MIC90 [35] [µg/mL] | further results
1 | COc1c(N2C[C@@H]3CCCN[C@@H]3C2)c(F)cc2c(=O)c(C(=O)O)cn(C3CC3)c12.Cl.O [MOXIFLOXACIN HYDROCHLORIDE HYDRATE] | 15200 | 8.1 | 2360 | 1030 | 11 | 61 | 30300 | 1490 | 24500 | 10900 | 6630 | 25.7 | – | – | – | – | – | – | – | – | –
2 | COc1c(N2C[C@@H](N)C3(CC3)C2)c(F)cc2c(=O)c(C(=O)O)cn([C@@H]3C[C@@H]3F)c12.Cl.O | 6770 | 41 | 4750 | 1270 | 50.7 | 49 | 19300 | 816 | 15000 | 19400 | 9450 | 23.1 | 0.05 | 0.05 | 0.2 | < 0.003 | 0.05 | – | – | – | Kp [13]: 12.2; inhibition at 100 µM [14]: 14.1%; MIC [16]: 0.006 µg/mL; Kp [17]: 4.3; P [19]: 8.8; half-life [20]: 2.1 h; solubility [21]: 446 µg/mL; AUC(0-t) at 8 h [25]: 1590 ng·h/mL; inhibition at 30 µM [26]: 5.2%; MIC [27]: 0.05 µg/mL; MIC [28]: 0.012 µg/mL; MIC [29]: 0.2 µg/mL; half-life [30]: 3.1 h; MIC [31]: 0.39 µg/mL; Kp [32]: 9.4; fraction unbound at 5 ug/mL [33]: 0.582; MIC [34]: 0.012 µg/mL
3 | CC[C@H]1OC(=O)[C@H](C)[C@@H](O[C@H]2C[C@@](C)(OC)[C@@H](O)[C@H](C)O2)[C@H](C)[C@@H](O[C@@H]2O[C@H](C)C[C@H](N(C)C)[C@H]2O)[C@](C)(O)C[C@@H](C)CN(C)[C@H](C)[C@@H](O)[C@]1(C)O [AZITHROMYCIN] | – | – | – | – | – | – | – | – | – | – | – | – | – | – | – | – | – | > 32 | > 32 | > 32 | –
4 | C[C@H]1NCc2cc(-c3ccc4c(=O)c(C(=O)O)cn(C5CC5)c4c3OC(F)F)ccc21 [GARENOXACIN] | – | – | – | – | – | – | – | – | – | – | – | – | – | – | – | – | – | 0.25 (≈ 0.586 µM) | 0.5 (≈ 1.17 µM) | 1 (≈ 2.35 µM) | MIC [36]: 0.12 µg/mL (≈ 0.281 µM); MIC [37]: 0.016 µg/mL (≈ 0.0375 µM); MIC [38]: 0.06 µg/mL (≈ 0.141 µM); MIC [39]: 0.063 µg/mL (≈ 0.148 µM)
5 | CC[C@H]1OC(=O)[C@H](C)[C@@H](O[C@H]2C[C@@](C)(OC)[C@@H](O)[C@H](C)O2)[C@H](C)[C@@H](O[C@@H]2O[C@H](C)C[C@H](N(C)C)[C@H]2O)[C@](C)(OC)C[C@@H](C)C(=O)[C@H](C)[C@@H](O)[C@]1(C)O [CLARITHROMYCIN] | – | – | – | – | – | – | – | – | – | – | – | – | – | – | – | – | – | > 32 | > 32 | > 32 | –
6 | COc1c(N2CC(C)(N)C3(CC3)C2)c(F)cc2c(=O)c(C(=O)O)cn([C@@H]3C[C@@H]3F)c12 (stereo not given in full) | – | – | – | – | – | – | – | – | – | – | – | – | 0.78 (≈ 1.86 µM) | 0.39 (≈ 0.93 µM) | 0.78 (≈ 1.86 µM) | 0.006 (≈ 0.0143 µM) | 0.39 (≈ 0.93 µM) | – | – | – | MIC [40]: 0.2 µg/mL (≈ 0.477 µM); MIC [27]: 0.1 µg/mL (≈ 0.238 µM); MIC [28]: 0.05 µg/mL (≈ 0.119 µM); MIC [31]: 1.56 µg/mL (≈ 3.72 µM); MIC [41]: 0.78 µg/mL (≈ 1.86 µM); MIC [34]: 0.05 µg/mL (≈ 0.119 µM)
